Here are results for five molecules from ChEMBL document CHEMBL1150081, “Antimicrobial Agents from Tanacetum balsamita” (1995).

Holding throughout (assay type): functional
The test system of assay [1] is Pseudomonas aeruginosa. The assay can be described thus: Antibacterial activity against Pseudomonas aeruginosa ATCC 10145 after 2 days by broth dilution method. Conditions: ATCC 10145, 48 h. A general note: In broth dilution the organism is exposed to a series of concentrations in liquid medium.
The test system of assay [2] is Cutibacterium acnes. The assay can be described thus: Antibacterial activity against Propionibacterium acnes ATCC 11827 after 2 days by broth dilution method. The note with it: ATCC 11827, 48 h.
The subject of a further assay is Saccharomyces cerevisiae. Description: Antifungal activity against Saccharomyces cerevisiae ATCC 7754 after 2 days by broth dilution method. The note with it: ATCC 7754, 48 h.
Assay [3] deals with Trichophyton mentagrophytes. The assay can be described thus: Antifungal activity against Trichophyton mentagrophytes ATCC 18748 after 5 days by broth dilution method. The note with it: ATCC 18748, 120 h.
Assay [4] relates to Escherichia coli. The assay can be described thus: Antibacterial activity against Escherichia coli ATCC 9637 after 2 days by broth dilution method. The note with it: ATCC 9637, 48 h.
For assay [5], the system named is Proteus vulgaris. Description: Antibacterial activity against Proteus vulgaris ATCC 13315 after 2 days by broth dilution method. The note with it: ATCC 13315, 48 h.
The subject of assay [6] is Klebsiella aerogenes. The assay can be described thus: Antibacterial activity against Enterobacter aerogenes ATCC 13048 after 2 days by broth dilution method. Conditions: ATCC 13048, 48 h.
In assay [7] the test system is Corynebacterium ammoniagenes. Description: Antibacterial activity against Brevibacterium ammoniagenes ATCC 6872 after 2 days by broth dilution method. The note with it: ATCC 6872, 48 h.
For assay [8], the system named is Staphylococcus aureus. Description: Antibacterial activity against Staphylococcus aureus ATCC 12598 after 2 days by broth dilution method. The note with it: ATCC 12598, 48 h.
The test system of the next assay is Penicillium chrysogenum. The assay can be described thus: Antifungal activity against Penicillium chrysogenum ATCC 10106 after 5 days by broth dilution method. Conditions: ATCC 10106, 120 h.
Another assay relates to Malassezia. Description: Antifungal activity against Pityrosporum ovale ATCC 14521 after 3 days by broth dilution method. The note with it: ATCC 14521, 72 h.
The test system of the next assay is Cyberlindnera jadinii. Description: Antifungal activity against Candida utilis ATCC 9226 after 2 days by broth dilution method. The note with it: Williopsis jadinii, ATCC 9226, 48 h.
In the next assay the test system is Bacillus subtilis. Description: Antibacterial activity against Bacillus subtilis ATCC 9372 after 2 days by broth dilution method. Conditions: ATCC 9372, 48 h.
For assay [9], the system named is Streptococcus mutans. Description: Antibacterial activity against Streptococcus mutans ATCC […] after 2 days by broth dilution method. The note with it: 48 h.
Assay [10] relates to Staphylococcus aureus. Description: Ratio of MBC to MIC for Staphylococcus aureus ATCC 12598.
In assay [11] the test system is Escherichia coli. The assay can be described thus: Ratio of MBC to MIC for Escherichia coli ATCC 9637.
The test system of assay [12] is Klebsiella aerogenes. Description: Ratio of MBC to MIC for Enterobacter aerogenes ATCC 13048.
For assay [13], the system named is Cutibacterium acnes. Description: Ratio of MBC to MIC for Propionibacterium acnes ATCC 11827.
Assay [14] has as its system Pseudomonas aeruginosa. The assay can be described thus: Ratio of MBC to MIC for Pseudomonas aeruginosa ATCC 10145.
Assay [15] concerns Streptococcus mutans. The assay can be described thus: Ratio of MBC to MIC for Streptococcus mutans ATCC […].
The test system of assay [16] is Corynebacterium ammoniagenes. Description: Ratio of MBC to MIC for Brevibacterium ammoniagenes ATCC 6872.
Assay [17] has as its system Proteus vulgaris. Description: Ratio of MBC to MIC for Proteus vulgaris ATCC 13315.

Converted amounts (≈) assume the structure as drawn.

One may read the MIC as the smallest concentration in the dilution series that meets the test's criterion for growth inhibition. As to `CCCCCC=O` [HEXANAL], the MIC with Pseudomonas aeruginosa [1] is over 800 µg/mL; against Cutibacterium acnes [2] it was 800 µg/mL (≈ 7990 µM); against Saccharomyces cerevisiae, over 800 µg/mL; in assay [3] it was over 800 µg/mL; in the assay with Escherichia coli [4], over 800 µg/mL; in the assay with Proteus vulgaris [5], over 800 µg/mL. For the same molecule, the MIC with Klebsiella aerogenes [6] is over 800 µg/mL; in [7], over 800 µg/mL; with Staphylococcus aureus [8] it was over 800 µg/mL; with Penicillium chrysogenum, over 800 µg/mL; with Malassezia, 800 µg/mL (≈ 7990 µM); against Cyberlindnera jadinii, over 800 µg/mL. Further, the MIC against Bacillus subtilis and against Streptococcus mutans [9] was over 800 µg/mL in each case.
Turning to `CCCCCCC/C=C/C=O` [TRANS-2-DECENAL], the MIC against Pseudomonas aeruginosa [1] was over 800 µg/mL; against Cutibacterium acnes [2], 12.5 µg/mL (≈ 81 µM); in the assay on Saccharomyces cerevisiae, 25 µg/mL (≈ 162 µM); in assay [3], 3.13 µg/mL (≈ 20.3 µM); against Escherichia coli [4], over 800 µg/mL; against Proteus vulgaris [5] it was 25 µg/mL (≈ 162 µM). Moreover, the MIC is over 800 µg/mL in the assay with Klebsiella aerogenes [6]; 50 µg/mL (≈ 324 µM) in assay [7]; 25 µg/mL (≈ 162 µM) against Staphylococcus aureus [8]; 12.5 µg/mL (≈ 81 µM) in the assay with Penicillium chrysogenum; 25 µg/mL (≈ 162 µM) against Malassezia; 25 µg/mL (≈ 162 µM) in the assay on Cyberlindnera jadinii. Besides, the results for the MIC against Bacillus subtilis and against Streptococcus mutans [9] were 25 µg/mL (≈ 162 µM) and 100 µg/mL (≈ 648 µM), respectively.
Consider `CCCCCC(=O)O` [HEXANOATE], for which the minimal inhibitory concentration (MIC) against Pseudomonas aeruginosa [1] was over 800 µg/mL; with Cutibacterium acnes [2], 400 µg/mL (≈ 3440 µM); in the assay on Saccharomyces cerevisiae, 400 µg/mL (≈ 3440 µM); in assay [3], 100 µg/mL (≈ 861 µM); against Escherichia coli [4] it was over 800 µg/mL; in the assay on Proteus vulgaris [5], 400 µg/mL (≈ 3440 µM). In addition, the MIC is over 800 µg/mL in the assay on Klebsiella aerogenes [6]; 400 µg/mL (≈ 3440 µM) in assay [7]; over 800 µg/mL against Staphylococcus aureus [8]; 400 µg/mL (≈ 3440 µM) with Penicillium chrysogenum; 400 µg/mL (≈ 3440 µM) against Malassezia; 400 µg/mL (≈ 3440 µM) against Cyberlindnera jadinii. Besides, the MIC against Bacillus subtilis was 200 µg/mL (≈ 1720 µM); with Streptococcus mutans [9] it was over 800 µg/mL.
`CCCCC/C=C/C=O`: the MIC against Pseudomonas aeruginosa [1] was over 800 µg/mL; in the assay on Cutibacterium acnes [2], 50 µg/mL (≈ 396 µM); against Saccharomyces cerevisiae, 50 µg/mL (≈ 396 µM); in assay [3] it was 25 µg/mL (≈ 198 µM); against Escherichia coli [4], 200 µg/mL (≈ 1580 µM); in the assay with Proteus vulgaris [5], 50 µg/mL (≈ 396 µM). Besides, the MIC turned out to be 200 µg/mL (≈ 1580 µM) against Klebsiella aerogenes [6]; 200 µg/mL (≈ 1580 µM) in [7]; 200 µg/mL (≈ 1580 µM) in the assay with Staphylococcus aureus [8]; 50 µg/mL (≈ 396 µM) with Penicillium chrysogenum; 25 µg/mL (≈ 198 µM) in the assay with Malassezia; 50 µg/mL (≈ 396 µM) in the assay on Cyberlindnera jadinii. The results for the MIC against Bacillus subtilis and in the assay with Streptococcus mutans [9] were 100 µg/mL (≈ 792 µM) and 400 µg/mL (≈ 3170 µM), respectively.
For the molecule `CCCC/C=C/C=O`, the MIC with Pseudomonas aeruginosa [1] turned out to be 800 µg/mL (≈ 7130 µM); in the assay on Cutibacterium acnes [2], 100 µg/mL (≈ 891 µM); in the assay on Saccharomyces cerevisiae it was 100 µg/mL (≈ 891 µM); in assay [3], 25 µg/mL (≈ 223 µM); in the assay on Escherichia coli [4] it was 400 µg/mL (≈ 3570 µM); with Proteus vulgaris [5], 100 µg/mL (≈ 891 µM). Also, the MIC was 400 µg/mL (≈ 3570 µM) with Klebsiella aerogenes [6]; 400 µg/mL (≈ 3570 µM) in [7]; 400 µg/mL (≈ 3570 µM) in the assay with Staphylococcus aureus [8]; 50 µg/mL (≈ 446 µM) in the assay with Penicillium chrysogenum; 50 µg/mL (≈ 446 µM) in the assay on Malassezia; 100 µg/mL (≈ 891 µM) in the assay with Cyberlindnera jadinii. The MIC is 200 µg/mL (≈ 1780 µM) against Bacillus subtilis and 400 µg/mL (≈ 3570 µM) in the assay on Streptococcus mutans [9]. In addition, the Ratio entry in the assay with Staphylococcus aureus [10], with Escherichia coli [11], in the assay on Klebsiella aerogenes [12], in the assay with Cutibacterium acnes [13], in the assay with Pseudomonas aeruginosa [14] and in the assay with Streptococcus mutans [15] was “<=2” throughout. Also, the Ratio entry (in [16]; with Proteus vulgaris [17]) was “<=2” each time.
